Assay results taken from patent US20070032409A1, “Bradykinin receptor antagonists and uses thereof” (VANDERBILT UNIVERSITY, priority 2005, published 2007).
Where two headings read alike, the source gives them in different places.

Key:
[1] = tested on: vasodilation in response to exogenous bradykinin; conditions: HOE 140 100 μg/kg; cited from earlier work
rats = conditions: after i.v. bradykinin, endogenously-released kinins, induction of acute pancreatitis; cited from earlier work
[2] = tested on: bradykinin-induced hypotension; conditions: correlated with antagonism of bradykinin-induced hypotension; cited from earlier work
[3] = tested on: adult patients undergoing elective cardiac surgery requiring CPB; assay: Hemodynamic response (MAP, heart rate) to protamine infusion, double-blind randomized study; type: in vivo, human
Experimental: The present inventors conducted a double-blind randomized study in sixteen adult male patients undergoing elective cardiac surgery requiring CPB and taking an angiotensin-converting enzyme inhibitor preoperatively. […] Mean arterial pressure (MAP) and tissue-type plasminogen activator (t-PA) activity were measured intraoperatively and before and after protamine.
Sixteen adult patients undergoing elective cardiac surgery requiring CPB and taking an ACE inhibitor preoperatively were studied. Patients were excluded if they had evidence of coagulopathy (INR greater than 1.7), underwent emergency surgery, underwent redo-CABG, had taken a glycoprotein IIb/IIIa antagonist within 2 days of surgery or had renal insufficiency (baseline creatinine>1.5 mg/dl). All patients provided written informed consent.

[4] = tested on: tissue-type plasminogen activator (t-PA) activity; assay: t-PA activity in arterial blood, chromogenic substrate kit
[5] = tested on: adult patients undergoing elective cardiac surgery requiring CPB; assay: Safety: intra- and postoperative patient characteristics; type: in vivo, human; conditions: HOE 140 group N=8
Experimental: Patients were transfused according to the following guidelines: packed red blood cells (PRBC) were transfused for a hematocrit less than 20% during CPB and for a hematocrit less than 25% after CPB, CPB time >120 min, or evidence of end-organ dysfunction. Platelets were transfused in 5-U sets for ongoing microvascular bleeding despite a normalized ACT. Fresh frozen plasma (FFP) was given for continued bleeding only after platelets were given. Transfusion requirements were recorded from the beginning of surgery until hospital discharge.

[6] = tested on: plasminogen activator inhibitor -1 (PAI-1) antigen; assay: PAI-1 antigen in arterial blood, 2-site ELISA; conditions: HOE 140 group N=8
[7] = tested on: tissue factor and plasminogen activator inhibitor-1; conditions: cited from earlier work
[8] = tested on: hypotensive transgenic mice that harbor the B2 receptor; conditions: mouse, in vivo; cited from earlier work
[9] = tested on: pancreatitis-induced hypotension; conditions: dog, in vivo; cited from earlier work
t-PA antigen = t-PA antigen in arterial blood, 2-site ELISA
[10] = target: neutral endopeptidase 24.11 (Homo sapiens, UniProt P08473); conditions: cited from earlier work
[11] = cited from earlier work
[12] = target: angiotensin-converting enzyme (ACE) (Homo sapiens, UniProt P12821); conditions: cited from earlier work
bradykinin = assay: Arterial bradykinin concentrations before and after protamine, enzyme immunoassay; conditions: all patients; for bradykinin concentration after protamine: P=0.006
aminopeptidase M = aminopeptidase M (Homo sapiens, UniProt P15144); conditions: cited from earlier work
[13] = target: T1, carboxypeptidase N (kininase I) (Homo sapiens, UniProt P15169); conditions: cited from earlier work
T1 sequence (P15169 21-458): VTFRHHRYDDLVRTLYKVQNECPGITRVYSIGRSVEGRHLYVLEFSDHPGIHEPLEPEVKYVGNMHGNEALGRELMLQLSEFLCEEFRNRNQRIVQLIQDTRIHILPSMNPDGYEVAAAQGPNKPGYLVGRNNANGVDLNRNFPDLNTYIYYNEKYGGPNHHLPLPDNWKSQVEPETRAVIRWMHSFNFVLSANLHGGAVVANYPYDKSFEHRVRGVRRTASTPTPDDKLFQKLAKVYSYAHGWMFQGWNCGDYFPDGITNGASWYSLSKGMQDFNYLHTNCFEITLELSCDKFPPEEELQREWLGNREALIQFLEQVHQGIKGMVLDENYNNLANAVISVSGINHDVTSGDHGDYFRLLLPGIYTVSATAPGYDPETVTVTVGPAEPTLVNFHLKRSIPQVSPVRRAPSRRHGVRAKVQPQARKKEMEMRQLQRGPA
T1 sequence (P22792 22-545 partner): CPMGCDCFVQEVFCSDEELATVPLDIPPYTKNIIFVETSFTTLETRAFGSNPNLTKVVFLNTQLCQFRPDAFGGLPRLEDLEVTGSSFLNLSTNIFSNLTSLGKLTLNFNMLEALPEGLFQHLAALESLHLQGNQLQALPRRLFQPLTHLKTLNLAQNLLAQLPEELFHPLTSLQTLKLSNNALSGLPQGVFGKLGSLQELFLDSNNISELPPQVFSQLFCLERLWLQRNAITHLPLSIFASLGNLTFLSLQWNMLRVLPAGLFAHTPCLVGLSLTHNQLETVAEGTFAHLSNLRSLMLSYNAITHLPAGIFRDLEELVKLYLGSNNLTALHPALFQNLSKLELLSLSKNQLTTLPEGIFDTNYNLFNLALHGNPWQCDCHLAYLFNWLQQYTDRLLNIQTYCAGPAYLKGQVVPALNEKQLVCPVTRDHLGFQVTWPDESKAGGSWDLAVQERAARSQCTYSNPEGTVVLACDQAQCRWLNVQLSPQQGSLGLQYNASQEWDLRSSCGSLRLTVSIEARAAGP

[14] = HOE 140 group N=8, mean±SD, in beats/min (unit assumed)
[15] = protamine 250 mg over 8 min after CPB

Sequence of aminopeptidase M (P15144 whole entry, species assumed): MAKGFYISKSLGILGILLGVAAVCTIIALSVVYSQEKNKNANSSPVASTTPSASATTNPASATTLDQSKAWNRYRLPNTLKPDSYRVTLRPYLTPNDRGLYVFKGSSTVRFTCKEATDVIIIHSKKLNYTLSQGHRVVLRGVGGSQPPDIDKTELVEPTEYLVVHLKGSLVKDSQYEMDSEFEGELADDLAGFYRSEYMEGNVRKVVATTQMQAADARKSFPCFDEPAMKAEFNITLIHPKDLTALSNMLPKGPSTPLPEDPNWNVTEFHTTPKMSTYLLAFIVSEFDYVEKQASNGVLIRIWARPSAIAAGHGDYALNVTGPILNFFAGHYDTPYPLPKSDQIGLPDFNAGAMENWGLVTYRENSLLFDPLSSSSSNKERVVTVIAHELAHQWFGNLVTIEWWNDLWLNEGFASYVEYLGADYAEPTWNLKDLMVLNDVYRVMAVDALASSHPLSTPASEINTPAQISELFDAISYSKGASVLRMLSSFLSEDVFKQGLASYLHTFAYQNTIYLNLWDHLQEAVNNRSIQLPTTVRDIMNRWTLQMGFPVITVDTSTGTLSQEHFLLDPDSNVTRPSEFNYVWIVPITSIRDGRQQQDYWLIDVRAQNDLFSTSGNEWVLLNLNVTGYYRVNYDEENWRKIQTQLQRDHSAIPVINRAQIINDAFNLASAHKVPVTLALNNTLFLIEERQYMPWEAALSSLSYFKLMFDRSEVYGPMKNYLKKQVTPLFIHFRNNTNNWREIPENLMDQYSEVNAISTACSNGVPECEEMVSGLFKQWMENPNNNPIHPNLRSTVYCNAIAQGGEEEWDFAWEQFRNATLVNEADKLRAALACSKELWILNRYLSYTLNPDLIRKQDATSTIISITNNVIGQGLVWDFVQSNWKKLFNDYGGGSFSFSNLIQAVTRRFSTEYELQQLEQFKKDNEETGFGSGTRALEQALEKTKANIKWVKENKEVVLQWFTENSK
Sequence of angiotensin-converting enzyme (ACE) (P12821 30-1306, species assumed): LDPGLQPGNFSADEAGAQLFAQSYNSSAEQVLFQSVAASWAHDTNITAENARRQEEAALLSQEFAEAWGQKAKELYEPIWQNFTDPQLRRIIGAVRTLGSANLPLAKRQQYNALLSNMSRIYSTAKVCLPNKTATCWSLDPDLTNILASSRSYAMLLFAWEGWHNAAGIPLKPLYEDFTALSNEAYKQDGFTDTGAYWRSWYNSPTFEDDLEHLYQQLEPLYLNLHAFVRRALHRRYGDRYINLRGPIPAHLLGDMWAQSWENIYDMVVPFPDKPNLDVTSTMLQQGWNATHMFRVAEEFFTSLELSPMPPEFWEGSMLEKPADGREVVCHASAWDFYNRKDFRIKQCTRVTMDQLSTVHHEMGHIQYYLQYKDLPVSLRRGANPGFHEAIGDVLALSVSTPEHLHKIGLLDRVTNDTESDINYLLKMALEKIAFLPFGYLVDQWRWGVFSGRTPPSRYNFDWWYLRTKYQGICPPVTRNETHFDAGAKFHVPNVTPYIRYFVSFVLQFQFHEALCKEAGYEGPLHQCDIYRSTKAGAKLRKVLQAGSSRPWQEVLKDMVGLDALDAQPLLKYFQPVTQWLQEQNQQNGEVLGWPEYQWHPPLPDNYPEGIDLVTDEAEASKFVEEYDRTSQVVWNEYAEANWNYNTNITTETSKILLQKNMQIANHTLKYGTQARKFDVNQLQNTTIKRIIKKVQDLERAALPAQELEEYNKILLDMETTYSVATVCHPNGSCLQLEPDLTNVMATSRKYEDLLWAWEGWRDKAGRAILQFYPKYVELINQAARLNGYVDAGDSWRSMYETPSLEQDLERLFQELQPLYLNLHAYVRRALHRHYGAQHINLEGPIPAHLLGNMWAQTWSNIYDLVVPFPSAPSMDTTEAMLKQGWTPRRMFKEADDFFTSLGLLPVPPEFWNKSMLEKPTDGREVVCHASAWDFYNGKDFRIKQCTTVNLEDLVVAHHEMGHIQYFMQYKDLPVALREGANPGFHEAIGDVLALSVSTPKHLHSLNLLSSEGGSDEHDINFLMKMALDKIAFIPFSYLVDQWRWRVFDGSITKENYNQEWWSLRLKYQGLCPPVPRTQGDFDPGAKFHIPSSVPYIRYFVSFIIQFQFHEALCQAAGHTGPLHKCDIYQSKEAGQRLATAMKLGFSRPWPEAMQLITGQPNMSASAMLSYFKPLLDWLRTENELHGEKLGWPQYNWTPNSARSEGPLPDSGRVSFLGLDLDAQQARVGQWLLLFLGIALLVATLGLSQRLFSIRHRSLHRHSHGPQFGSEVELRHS
Sequence of neutral endopeptidase 24.11 (P08473 whole entry, species assumed): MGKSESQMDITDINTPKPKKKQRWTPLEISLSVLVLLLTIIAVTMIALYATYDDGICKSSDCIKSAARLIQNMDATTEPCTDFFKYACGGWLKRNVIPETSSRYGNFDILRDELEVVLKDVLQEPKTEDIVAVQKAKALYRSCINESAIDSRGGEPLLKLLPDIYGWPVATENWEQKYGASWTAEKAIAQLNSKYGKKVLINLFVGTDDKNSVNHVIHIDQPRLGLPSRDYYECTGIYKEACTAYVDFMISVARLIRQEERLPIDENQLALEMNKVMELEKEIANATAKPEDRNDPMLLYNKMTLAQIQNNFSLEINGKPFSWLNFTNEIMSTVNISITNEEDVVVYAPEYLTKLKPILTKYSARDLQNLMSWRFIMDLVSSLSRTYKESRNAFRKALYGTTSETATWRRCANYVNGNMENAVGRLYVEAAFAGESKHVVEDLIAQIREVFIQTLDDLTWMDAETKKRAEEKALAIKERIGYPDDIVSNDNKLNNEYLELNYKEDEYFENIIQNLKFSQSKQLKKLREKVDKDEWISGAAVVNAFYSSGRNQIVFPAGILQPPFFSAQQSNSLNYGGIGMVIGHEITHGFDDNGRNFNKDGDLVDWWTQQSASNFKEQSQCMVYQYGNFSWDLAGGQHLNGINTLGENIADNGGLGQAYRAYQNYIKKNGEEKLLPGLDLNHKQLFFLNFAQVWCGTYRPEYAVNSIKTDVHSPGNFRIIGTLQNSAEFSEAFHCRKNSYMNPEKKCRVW

NC(N)=NCCC[C@@H](N)C(=O)N[C@@H](CCCN=C(N)N)C(=O)N1CCC[C@H]1C(=O)N1C[C@H](O)C[C@H]1C(=O)NCC(=O)N[C@@H](Cc1cccs1)C(=O)N[C@@H](CO)C(=O)N1Cc2ccccc2C[C@@H]1C(=O)N1[C@H](C(=O)N[C@@H](CCCN=C(N)N)C(=O)O)C[C@@H]2CCCC[C@@H]21 [HOE 140]
effect on vasodilation in response to exogenous bradykinin [1]: prevents vasodilation
effect on decreases in blood pressure (rats): blocks
effect on blood pressure [2]: increased blood pressure
MAP during protamine infusion (nadir) ([3]; HOE 140 100 μg/kg i.v. before protamine, N=8, mean±SD): 69.6±3.4 mmHg
MAP at the start of the protamine infusion (pre-protamine) ([3]; HOE 140 100 μg/kg i.v. over one-half hour at end of CPB before protamine, N=8, mean±SD): 74.3±10.6 mmHg
heart rate after protamine [3, 14]: 81.0±14.0
heart rate prior to protamine [3, 14]: 91.4±9.5
effect on decrease in MAP during protamine infusion ([3]; P=0.022, ANOVA, versus saline): significantly blunted
reduction of mean arterial pressure by protamine ([3]; in the presence of HOE 140): about 6%
t-PA activity, intraoperative ([4]; 60 min after initiation of CPB, prior to receiving HOE 140, N=8): 3.59±0.88 IU/ml
t-PA activity, pre-protamine ([4]; after HOE 140 administration (100 μg/kg i.v.), before protamine, N=8): 1.67±1.18 IU/ml
t-PA activity, post-protamine ([4]; after protamine infusion in HOE 140 group, N=8): 0.77±0.74 IU/ml
t-PA activity, baseline ([4]; before initiation of CPB, prior to HOE 140, N=8): 0.42±0.29 IU/ml
change in t-PA activity ([4]; during HOE 140 administration, P=0.036 compared to saline): −1.92±0.94 IU/ml
CT 4 hours (chest tube output) [5]: 299.4 ± 233.0 mL
CT 24 hours (chest tube output) [5]: 759.6 ± 276.4 mL
Fresh frozen plasma transfusion [5]: 0.4 ± 1.1 Units
New onset atrial fibrillation [5]: 1(12.5) N(%)
PRBC transfusion [5]: 4.4 ± 4.0 Units
Platelet transfusion [5]: 275 ± 177 mL
Time to extubation >10 hours [5]: 2(25) N(%)
PAI-1 antigen after protamine administration [6]: 27.4 ± 15.5 ng/mL
PAI-1 antigen before protamine administration [6]: 20.2 ± 17.1 ng/mL
PAI-1 antigen on postoperative day 1 [6]: 32.4 ± 10.1 ng/mL
effect on bradykinin-increased expression of tissue factor and PAI-1 [7]: suppressed
effect on blood pressure [8]: restoring blood pressure to normal levels
effect on pancreatitis-induced hypotension [9]: improvement of the hypotension in some animals
effect on release of bradykinin and beta-endorphin [9]: inhibited
t-PA antigen after protamine administration (t-PA antigen; HOE 140 group N=8): 22.7 ± 9.1 ng/mL
t-PA antigen after study drug infusion, before protamine (t-PA antigen; HOE 140 group N=8): 20.1 ± 6.1 ng/mL
t-PA antigen before study drug infusion (t-PA antigen; HOE 140 group, intraoperative, N=8): 23.4 ± 12.6 ng/mL

Protamine: highly basic polycationic polypeptide given at the end of CPB to reverse the anticoagulation effects of heparin (SEQ ID NO:1) (MARYRCCRSQSRSRYYRQRQRSRRRRRRSCQTRRRAMRCCRPRYRPRCRRH)
inhibition of neutral endopeptidase 24.11 [10]: does not inhibit
time to neutralization of heparin ([11]; after i.v. administration): ≤ 5 min
heparin activity neutralized per mg of protamine sulfate ([11]; heparin derived from intestinal mucosa): about 115 USP units
heparin activity neutralized per mg of protamine sulfate ([11]; heparin derived from lung tissue): approximately 90 USP units
inhibition of angiotensin-converting enzyme (ACE) [12]: does not inhibit
bradykinin concentration before protamine (bradykinin): 6.3±4.3 finol/ml
bradykinin concentration after protamine (bradykinin): 12.2±9.8 finol/ml
bradykinin concentration before protamine (bradykinin; [15]): 6.3 ± 4.3 fmol/mL
bradykinin concentration after protamine (bradykinin; [15]): 12.2 ± 9.8 fmol/mL
inhibition of aminopeptidase M (aminopeptidase M): does not inhibit
inhibition of carboxypeptidase N (kininase I) [13]: inhibits
